Holding throughout (type): in vivo, Arabidopsis thaliana
One experiment concerns WT Ws plants. Put plainly: Survival after drought treatment on absorbing papers, WT Ws plants treated with ABA for 10 days. As to conditions: +ABA 5 μM for 10 days, n = 30. On the procedure: (§1) Seeds of Arabidopsis thaliana, ecotype Wassilewskija, Columbia or Landsberg erecta were surface sterilized in 50% commercial bleach (Clorox) and 0.05% Tween 20 as described (Lopez-Molina and Chua, 2000) and then plated on Murashige and Skoog (MS) medium (Murashige and Skoog, 1962) containing 0.8% (w/v) Bacto-Agar (Difco Laboratories). Plates were routinely kept for 3 days in the dark at 4° C. to break dormancy (stratification) and transferred thereafter to a tissue culture room under constant white fluorescent light (27 μmol.m^−2.s^−1) at 22° C. Seeds of abi1, abi3-I and abi4 were obtained from the Nottingham Arabidopsis Stock Center (NASC). For ABA treatments, seedlings were transferred to plates supplemented with ABA (mixed isomers, Sigma A7393) which was dissolved in methanol. Control plates contained equal amounts of methanol.
(§2) To test this hypothesis, we broke embryo dormancy of WT and abi5-4 seeds in the absence of ABA for 24 hours. Seeds were then transferred for an additional 10 days to media with or without ABA. After 10 days, ABA-treated WT mature embryos had germinated but were arrested in growth as described above, whereas abi5-4 or non-treated WT Ws plants were green and continued to grow. Plants were then water-stressed for different time intervals on absorbent papers before being allowed to recover in normal medium. […] This is in sharp contrast with abi5-4 embryos, none of which survived. abi5-4 plants were able to survive better with than without ABA (Table 1), although not to the same extent as WT. […] Indeed, abi5-4 plants grow more slowly on 5 μM ABA than on medium lacking it, whereas the growth of WT plants is completely arrested. This developmental difference may be responsible for the higher resistance to water depletion of ABA-treated abi5-4 plants (Table 1).

A further experiment relates to abi5-4 plants. Put plainly: Survival after drought treatment on absorbing papers, abi5-4 plants treated with ABA for 10 days. As to conditions: abi5, +ABA 5 μM for 10 days, n = 30. As to the method:
as §1, §2

The next experiment concerns ABI5. In words: ABI5 protein accumulation in WT Ws seeds/seedlings by Western blot. The text has this:
RNA extraction and Northern blot hybridizations were done as described (Lopez-Molina and Chua, 2000). A DNA fragment encoding the ABI5 open reading frame was cloned into pET28a (Novagen) and the recombinant protein was induced and purified using a commercial kit according to the manufacturer's instructions (His trap, Amersham Pharmacia). Polyclonal anti-ABI5 antiserum was obtained from rabbits immunized with His-tagged ABI5. Standard methods using His-ABI5 coupled to a CNBr activated Sepharose 6-MB column (Amersham Pharmacia) were used to affinity purify specific ABI5 antibody from sera.
Plant protein extracts were resolved under reducing conditions using 10% SDS-polyacrylamide gels (Laemmli, 1970). […]
ABA concentrations (3-10 μM) that discriminate between abi5-4 mutants and WT under normal growth conditions were selected. […] Indeed, by immunoblot analysis, the ABI5 protein with a molecular mass of about 50 Kd was detected two days after stratification in the presence of ABA. […]
To determine whether the observed ABA-dependent accumulation of ABI5 levels was restricted to early development, we stratified WT seeds in the absence of ABA and then transferred the seedlings at different time intervals to a medium supplemented with 5 μM ABA (FIG. 3A). […] ABI5 levels were monitored by Western blot analysis. […] ABI5 levels were monitored by Western blot analyses as described for FIG. 1 (FIG. 3B).

Another experiment deals with HA-ABI5. Put plainly: HA-ABI5 accumulation in WT/35S::HA-ABI5 transgenic lines by immunoblot. As to conditions: WT/35S::HA-ABI5 lines, anti-HA immunoblot. On the procedure:
Given the strong ABA-dependent ABI5 protein accumulation, we were interested to determine whether ABI5 protein stability is altered in the presence of ABA. For this purpose we generated WT/35S::HA-ABI5 transgenic lines constitutively expressing HA-ABI5 transcript. DNA manipulations were performed according to standard methods (Sambrook et al., 1989). 35S constructs were generated using a binary vector (Kost et al., 1998). Transgenic Arabidopsis lines (Ws ecotype) were generated using the Agrobacterium tumefaciens vacuum-infiltration method (Bechtold and Pelletier, 1998). Seeds (T1) from infiltrated plants were plated on MS medium containing 10 mg/L gluphosinate ammonium (Crescent Chemical) and 100 mg/L cefotaxime (Sigma).
In these lines, HA-ABI5 accumulation is 5-10 fold higher in the presence of ABA as shown by immunoblot analysis using anti-HA antibodies. 8-day old Ws/35S::HA-ABI5 seedlings (T3 generation) were transferred to MS medium with or without 50 μM ABA. Proteins were extracted at 0 hours, 10 minutes, 1 hour, 2 hours and 30 minutes, and 6 hours and ABI5 protein levels were monitored by Western blot analysis using antibodies to HA (FIG. 2A; each lane contains 5 μg protein). […] Equal amounts (5 μg) of protein were loaded on a 10% SDS-polyacrylamide (Novex) gel and analyzed by Western blots using rabbit antibody to HA (1:3,000; Santa Cruz).

For another experiment, the system named is WT Ws seeds. In words: Germination and early growth arrest of WT seeds on ABA plates. As to the method: as §1
Given the ABA-insensitivity of abi5-4 mutant and the timing of ABI5 induction upon ABA exposure, we studied the effect of ABA on growth during early development. […] Virtually all WT seeds were fully germinated on 5 μM ABA only 5 days post-stratification (FIG. 3C). Similar results were obtained with different Ws seed batches and for the ecotypes Landsberg and Columbia. At 10 μM ABA, complete germination was observed 8 days post-stratification (FIG. 3D). […] ABI5 levels remained constant as long as ABA was present. […] Upon ABA removal, all of the embryos started to green and resumed normal growth.

For experiment [1], the system named is Ws/35S::HA-ABI5 transgenic plants. Put plainly: Germination and growth of ABI5 overexpressing transgenic seeds on ABA. On the procedure:
To determine whether the presence of ABI5 is sufficient to arrest growth in the absence of ABA, we expressed the ABI5 gene from a constitutive promoter. Transgenic Arabidopsis lines expressing ABI5 under the control of the cauliflower mosaic virus 35S promoter in WT Ws or abi5-4 backgrounds were generated and several independent lines expressing various levels of ABI5 were obtained. WT Ws and Ws/35S::HA-ABI5 transgenic plants were grown for 5 days with 0, 0.5 and 5 μM ABA. In the transgenic line shown in FIG. 5A, ABI5 levels in absence of ABA were at least five fold higher than that in WT plants grown in the presence of ABA. Transgenic seeds were arrested in development at 0.5 μM ABA and only started to germinate after 5 days (FIG. 5A). WT Ws seeds were insensitive to 0.5 μM ABA and were fully germinated in 5 μM ABA after 5 days (FIG. 5A). Despite the accumulation of ABI5, the lines germinated and developed normally in the absence of ABA.
We next investigated the effect of ABA in ABI5 overexpressing lines. Addition of 5 μM ABA severely delayed germination by at least 7 days and blocked mature embryo growth in several lines. To measure more precisely the ABA response, we plated WT/35S::HA-ABI5 transgenic seeds on growth media containing different ABA concentrations. Treatment of WT/35S::HA-ABI5 plants with 0.5 μM ABA was sufficient to phenocopy the response of WT plants exposed to 5 μM ABA (FIG. 5A).

Experiment [2] concerns Ws/35S::HA-ABI5 transgenic lines. Put plainly: ABA inhibition of root growth, ABI5-overexpressing lines. As to conditions: 5-day old seedlings, 5 and 10 μM ABA for 5 days, n=15. As to the method:
(§3) The following methods were used in obtaining the further results described below. WT Ws seedlings and transgenic Ws seedlings carrying 35S::HA -ABI5 (WT/35S::HA -ABI5, T3 generation) were germinated and grown for 5 days on MS medium without ABA. Seedlings were then transferred to plates containing 5 μM ABA, and subsequent root growth was scored after 5 days. Values were expressed as the average ±SD of 15 seedlings. For water loss measurement, young rosette leaves at the same developmental stage were excised from WT Ws, WT/35S::HA-ABI5 and abi1 plants and weighed at the different times indicated (n=3).
(§4) At 0.5 μM ABA, WT plants grew normally (FIG. 5A). Inhibition of root growth by ABA was unaffected in abi5-4 mutants but was exacerbated in ABI5-overexpressing lines (FIG. 5B). Five-day old seedlings grown in the absence of ABA were transferred to 0, 5 and 10 μM ABA plates for 5 days. The root length of ABA-treated seedlings was expressed as a percentage of non-treated controls (n=15).

A further experiment concerns abi5-4 mutants. In words: ABA inhibition of root growth, abi5-4 mutants. On the procedure: as §3, §4

For the compound `CC1=CC(=O)CC(C)(C)[C@@]1(O)/C=C/C(C)=C\C(=O)O` [ABA, Abscisic acid], the “Percentage of survival after different period of drought treatment (hours)” value in the experiment with WT Ws plants (0 hours drought) worked out at 100%; with WT Ws plants (8 hours drought), 100%; with WT Ws plants (12 hours drought), 98%; in the experiment with WT Ws plants (24 hours drought) it was 90%; with WT Ws plants (36 hours drought), 84%; in the experiment on abi5-4 plants (0 hours drought), 100%. Also, the “Percentage of survival after different period of drought treatment (hours)” value worked out at 97% with abi5-4 plants (8 hours drought), 55% in the experiment with abi5-4 plants (12 hours drought), 20% in the experiment on abi5-4 plants (24 hours drought) and 0% in the experiment with abi5-4 plants (36 hours drought). In addition, the “developmental window of efficient induction of ABI5 accumulation” value with ABI5 (WT Ws transferred to 5 μM ABA plates) is 48-60 hours post-stratification. Moreover, in the experiment on ABI5 (WT Ws, 5 μM ABA, first two days post-stratification), the “increase of ABI5 protein level in the presence of ABA” value was “at least 10 fold”. Further, the “HA-ABI5 accumulation higher in the presence of ABA” value in the experiment on HA-ABI5 is given as 5-10 fold. Also, the “response of WT Ws seeds to ABA” value in the experiment on WT Ws seeds (0.5 μM ABA, 5 days) is reported as “insensitive”. Also, the “time after which all seeds fully germinate in the presence of ABA” value with WT Ws seeds (ABA concentration range 3 to 10 μM) was found to be 10 days. The “embryos remaining white and quiescent, not growing” value with WT Ws seeds (WT germinated embryos kept on ABA for at least a month, n=200) is on record as 95%±3. In addition, the “time at which virtually all seeds were fully germinated” value in the experiment with WT Ws seeds (WT seeds, 5 μM ABA) was 5 days post-stratification. Further, in the experiment on WT Ws seeds (WT seeds, 10 μM ABA), the “time at which complete germination was observed” value is listed as 8 days post-stratification. For the same compound, in experiment [1] (ABI5 overexpressing lines, 5 μM ABA), the delay of germination result is listed as “at least 7 days”. In addition, the “ABA concentration sufficient to phenocopy the response of WT plants exposed to 5 μM ABA” value in experiment [1] (WT/35S::HA-ABI5 plants) is 0.5 µM. Besides, in experiment [1] (Ws/35S::HA-ABI5 seeds, 0.5 μM ABA), the “time after which arrested transgenic seeds started to germinate” value is 5 days. In addition, the “inhibition of root growth by ABA compared with WT Ws” value in experiment [2] is on record as “exacerbated”. Also, the “inhibition of root growth by ABA” value in the experiment with abi5-4 mutants was “unaffected”.

These data come from patent US20020174454A1, “Overexpression of ABI5 in plants to prevent precocious seed germination and to confer resistance to drought and high salt” (priority 2001, published 2002).
